Consider 24 compounds from US20240239757A1, “PHTHALAZINONE DERIVATES AS NLRP3 INFLAMMASOME INHIBITORS” (JANSSEN PHARMACEUTICA NV, priority 2021, published 2024).

One data set concerns IL-1β. Description: PBMC assay, IL-1β. Type of data set: cell-based. As to conditions: human PBMCs, 30 min with compound, then 100 ng/ml LPS for 6 hrs, supernatant analysed via MSD technology, read-out: IL1β IC50. The protocol:
The activity of a compound according to the present invention can be assessed by in vitro methods.
(§1) Peripheral venous blood was collected from healthy individuals and human peripheral blood mononuclear cells (PBMCs) were isolated from blood by Ficoll-Histopaque (Sigma-Aldrich, A0561) density gradient centrifugation. After isolation, PBMCs were stored in liquid nitrogen for later use. Upon thawing, PBMC cell viability was determined in growth medium (RPMI media supplemented with 10% fetal bovine serum, 1% Pen-Strep and 1% L-glutamine). Compounds were spotted in a 1:3 serial dilution in DMSO and diluted to the final concentration in 30 μl medium in 96 well plates (Falcon, 353072). PBMCs were added at a density of 7.5×10^4 cells per well and incubated for 30 min in a 5% CO2 incubator at 37° C. LPS stimulation was performed by addition of 100 ng/ml LPS (final concentration, Invivogen, tlrl-smlps) for 6 hrs followed by collection of cellular supernatant and the analysis of IL-1β (μM) and TNF cytokines levels (μM) via MSD technology according to manufacturers' guidelines (MSD, K151A0H).
(§2) The IC50 values (for IL-1β) and EC50 values (TNF) were obtained on compounds of formula (I)/examples, and are depicted in the following table: […]

The next data set has as its system TNF. Description: PBMC assay, TNF. Type of data set: cell-based. As to conditions: human PBMCs, 30 min with compound, then 100 ng/ml LPS for 6 hrs, supernatant analysed via MSD technology. The protocol:
as §1, §2

In general, IC50 refers to the concentration that gives 50% inhibition. The term EC50 denotes the concentration at which the effect is half-maximal. The melting point is the temperature of the solid-liquid transition.

`CN(C)c1nn(CC(=O)Nc2ccc3nncn3c2)c(=O)c2ccc(C(F)(F)F)cc12` [Compound 1H, N-([1,2,4]triazolo[4,3-a]pyridin-6-yl)-2-(4-(dimethylamino)-1-oxo-6-(trifluoromethyl)phthalazin-2(1H)-yl)acetamide]: in the data set with IL-1β, the concentration for half-maximal inhibition (IC50) turned out to be 0.08 µM. In the data set on TNF, the EC50 is > 10 µM.
For `CN(C)c1nn(CC(=O)Nc2ccncn2)c(=O)c2ccc(C(F)(F)F)cc12` [Compound 1I], the melting point worked out at 238.3 °C. For the same compound, the half-maximal inhibitory concentration (IC50) in the data set with IL-1β stood at 0.17 µM. Further, in the data set with TNF, the concentration for a half-maximal effect (EC50) is > 10 µM.
`CN(C)c1nn(CC(=O)N[C@H]2C[C@@](C)(O)C2)c(=O)c2ccc(C(F)(F)F)cc12` [Compound 1J] yielded a melting point of 184.8 °C. Besides, the IC50 in the data set on IL-1β is 0.07 µM. The EC50 in the data set on TNF is > 10 µM.
On the same counts, the results for `CN(C)c1nn(CC(=O)Nc2ccc(=O)n(C)n2)c(=O)c2ccc(C(F)(F)F)cc12` [Compound 1K] are 241.8 °C, 0.36 µM and > 10 µM.
As to `CN(C)c1nn(CC(=O)Nc2ccc3nncn3n2)c(=O)c2ccc(C(F)(F)F)cc12` [Compound 2A, N-([1,2,4]triazolo[4,3-b]pyridazin-6-yl)-2-(4-(dimethylamino)-1-oxo-6-(trifluoromethyl)phthalazin-2(1H)-yl)acetamide], the concentration for half-maximal inhibition (IC50) in the data set on IL-1β is 0.07 µM. The 50% effective concentration (EC50) with TNF was > 10 µM.
`O=C(Cn1nc(N2CC(F)(F)C2)c2cc(C(F)(F)F)ccc2c1=O)Nc1ccc2nncn2c1` [Compound 3C]: in the data set on IL-1β, the IC50 was > 10 µM. The 50% effective concentration (EC50) with TNF was > 10 µM.
In the case of `O=C(Cn1nc(N2CC(F)(F)C2)c2cc(C(F)(F)F)ccc2c1=O)Nc1ccncn1` [Compound 3D], the melting point came out at 288.6 °C. Moreover, the IC50 in the data set on IL-1β was 3.32 µM. In the data set with TNF, the concentration for a half-maximal effect (EC50) is > 10 µM.
In the case of `O=C(Cn1nc(N2CC(F)(F)C2)c2cc(C(F)(F)F)ccc2c1=O)Nc1ccnnc1` [Compound 3E], the melting point stood at 221.6 °C. In the data set with IL-1β, the concentration for half-maximal inhibition (IC50) stood at 9.61 µM. For the same compound, the 50% effective concentration (EC50) in the data set on TNF is > 10 µM.
Take `C[C@]1(O)C[C@@H](NC(=O)Cn2nc(N3CC(F)(F)C3)c3cc(C(F)(F)F)ccc3c2=O)C1` [Compound 3F]: the melting point stood at 213.3 °C. Further, the IC50 in the data set on IL-1β worked out at 3.09 µM. Moreover, in the data set on TNF, the EC50 is > 10 µM.
`CC(C)n1ccc(NC(=O)Cn2nc(N3CC(F)(F)C3)c3cc(C(F)(F)F)ccc3c2=O)n1` [Compound 3G] yielded a melting point of 220 °C. Moreover, the IC50 with IL-1β was > 10 µM. Further, the EC50 in the data set with TNF is > 10 µM.
For `O=C(Cn1nc(N2CC(F)(F)C2)c2cc(Br)ccc2c1=O)Nc1ccncn1` [Compound 4G], the melting point worked out at 286.8 °C. Moreover, the 50% inhibitory concentration (IC50) in the data set on IL-1β was 4.29 µM. Also, in the data set on TNF, the half-maximal effective concentration (EC50) is > 10 µM.
The compound `CN(C)c1nn(CC(=O)N[C@H]2C[C@@](C)(O)C2)c(=O)c2ccc(Br)cc12` [Compound 5C] had a melting point of 193.2 °C. Further, the IC50 in the data set on IL-1β was 0.03 µM. For the same compound, the EC50 with TNF is > 10 µM.
As for `CN(C)c1nn(CC(=O)Nc2ccc3nncn3c2)c(=O)c2ccc(Br)cc12` [Compound 5D], the melting point was > 300 °C. Further, the IC50 in the data set on IL-1β was 0.05 µM. The EC50 in the data set with TNF was > 10 µM.
Turning to `CN(C)c1nn(CC(=O)Nc2ccc(=O)n(C)n2)c(=O)c2ccc(Br)cc12` [Compound 5E], the melting point turned out to be 246.8 °C. The concentration for half-maximal inhibition (IC50) in the data set on IL-1β turned out to be 0.17 µM. Further, in the data set with TNF, the half-maximal effective concentration (EC50) was > 10 µM.
In the case of `CN(C)CCN(C)c1nn(CC(=O)Nc2ccc3nncn3c2)c(=O)c2ccc(C(F)(F)F)cc12` [Compound 6C], the IC50 in the data set on IL-1β was > 10 µM. In addition, the concentration giving a half-maximal response (EC50) in the data set with TNF is > 10 µM.
On to `COCCN(C)c1nn(CC(=O)Nc2ccc3nncn3c2)c(=O)c2ccc(C(F)(F)F)cc12` [Compound 7C], for which the IC50 in the data set on IL-1β stood at 5.63 µM. Besides, in the data set on TNF, the half-maximal effective concentration (EC50) is > 10 µM.
`CN(C)c1nn(CC(=O)N[C@H]2C[C@@](C)(O)C2)c(=O)c2ccc(Cl)cc12` [Compound 8H] gave a melting point of 184.8 °C. Besides, the IC50 with IL-1β turned out to be 0.12 µM. Also, the concentration giving a half-maximal response (EC50) in the data set with TNF is > 10 µM.
Compound `CN(C)c1nn(CC(=O)Nc2ccc3nncn3c2)c(=O)c2ccc(Cl)cc12` [Compound 8I] yielded a melting point of 295.3 °C. In addition, the IC50 in the data set with IL-1β worked out at 0.31 µM. The EC50 with TNF is > 10 µM.
On the same counts, the results for `CN(C)c1nn(CC(=O)Nc2ccc(=O)n(C)n2)c(=O)c2ccc(Cl)cc12` [Compound 8J] are 253.4 °C, 0.84 µM and > 10 µM.
`CN(C)c1nn(CC(=O)N[C@H]2C[C@@](C)(O)C2)c(=O)c2cc(Cl)ccc12` [Compound 9H] came in with a melting point of 173.1 °C. Besides, in the data set on IL-1β, the IC50 was > 10 µM. For the same compound, the concentration for a half-maximal effect (EC50) with TNF was > 10 µM.
On to `CN(C)c1nn(CC(=O)Nc2ccc(=O)n(C)n2)c(=O)c2cc(Cl)ccc12` [Compound 9I], for which the melting point was 213.2 °C. In addition, the 50% inhibitory concentration (IC50) with IL-1β is > 10 µM. The 50% effective concentration (EC50) in the data set on TNF is > 10 µM.
Take `CN(C)c1nn(CC(=O)Nc2ccc3nncn3c2)c(=O)c2cc(Cl)ccc12` [Compound 9J]: the melting point was > 300 °C. Besides, in the data set on IL-1β, the IC50 is > 10 µM. Moreover, the concentration giving a half-maximal response (EC50) in the data set with TNF is > 10 µM.
In turn, `CN(C)c1nn(CC(=O)Nc2ccc3nncn3n2)c(=O)c2ccc(Cl)cc12` [Compound 10A] showed a melting point of 270.3 °C. Also, the IC50 with IL-1β was 0.13 µM. Also, in the data set with TNF, the EC50 is > 10 µM.
Compound `CN(C)c1nn(CC(=O)Nc2ccc3nncn3n2)c(=O)c2ccc(Br)cc12` [Compound 11A] yielded a melting point of 231.6 °C. Also, the half-inhibitory concentration (IC50) in the data set with IL-1β was determined as 0.05 µM. In the data set on TNF, the concentration giving a half-maximal response (EC50) was > 10 µM.
